# From patent US11414436B2, “Non-coordinating anion type activators containing cation having large alkyl groups” (ExxonMobil Chemical Patents Inc., priority 2018, dated 2022)
# Values joined by “and” are separate entries in the source; they are usually repeats but may differ in a detail not shown here. Equal values may be shown once.
# Tests used:
# [1] = Solubility studies of the activators (saturated solution in isohexane or methylcyclohexane); assay type: physicochemical
# Summary of the method: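 Solid activators stirred in excess with isohexane or methylcyclohexane for several hours at 25 °C, filtered, and a filtrate aliquot evaporated and weighed. Emulsion-forming activators titrated with solvent until homogeneous, with activator mass found gravimetrically. Saturated concentration given in mM.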
# [2] = RUN B: ethylene-octene polymerization in parallel pressure reactor, activator diluent toluene or methylcyclohexane; conditions: ethylene-octene copolymerization; for activity: Cat 1 (MCN-1)
# Method: RUN B: Polymerization in Parallel Pressure Reactor.
# A series of ethylene-octene polymerizations were performed in the parallel pressure reactor according to the procedure described above. […] In a typical experiment an automated syringe was used to introduce into the reactor the following reagents, if utilized, in the following order: isohexane (0.35 mL), an isohexane solution of TNOAL scavenger (0.005 M, 60 μL), additional isohexane (0.35 mL), a toluene solution of the respective polymerization catalyst (150 μL, 0.4 mM, 20 nm [cat]/100 μL [toluene]), additional isohexane (0.35 mL), a toluene or methylcyclohexane solution of the respective activator (150 μL, 0.4 mM, (20 nm [act]/100 μL[ diluent])), then additional isohexane so that the total solvent volume for each run was 5 mL. Catalyst and activator were used in a 1:1 ratio. Each reaction was performed at a specified temperature range between 50 and 120° C., typically 95° C., while applying about 100 psig of ethylene (monomer) gas. Each reaction was allowed to run for about 1 hour (˜3600 seconds) or until approximately 20 psig of ethylene gas uptake was observed, at which point the reactions were quenched with air (˜300 psig). When sufficient polymer yield was attained (e.g., at least ˜10 mg), the polyethylene product was analyzed by Rapid GPC, described below.
# In a typical experiment, the anilinium borate activators were combined with toluene or methylcyclohexane as diluent and introduced to the parallel, pressure reactor via syringe. By this mechanism of activator introduction, only well dissolved activators could be delivered to the reactor providing a means to discriminate between the polymerization performance of long chain soluble anilinium borates vs. conventional anilinium borates. Following addition of activator, the catalyst Cat 1 was introduced, via syringe as well-dissolved toluene solution and the polymerization was conducted per the methodology described above.
Molecule,Solubility limit in i-hexane (mM at 25° C.) ([1]; isohexane) [mM],Solubility limit in i-hexane (wt % at 25° C.) ([1]; isohexane) [wt %],Solubility limit in MeCy (mM at 25° C.) ([1]; methylcyclohexane) [mM],"quantity of polymer obtained with methylcyclohexane as diluent ([2]; Cat 1, activator in methylcyclohexane)",activity ([2]; activator diluent MeCy (methylcyclohexane)) [kg/mmol/h],"activity ([2]; activator diluent Toluene, listed as C2)"
"CCCCCCCCCCCCCCCCCC[NH+](CCCCCCCCCCCCCCCCCC)c1ccc(C)cc1.Fc1c(F)c(F)c2c(F)c([B-](c3c(F)c(F)c4c(F)c(F)c(F)c(F)c4c3F)(c3c(F)c(F)c4c(F)c(F)c(F)c(F)c4c3F)c3c(F)c(F)c4c(F)c(F)c(F)c(F)c4c3F)c(F)c(F)c2c1F [DOdTH-BF28, 4-methyl-N,N-dioctadecylbenzenaminium-BF28]",120,29,160,,,
"N,N-dimethylanilinium tetrakis(heptafluoronaphthalen-2-yl)borate [DMAH-BF28, reference compound]",,,,insufficient for analysis,0.0,441.3 kg/mmol/h and 392.4 kg/mmol/h and 390.1 kg/mmol/h and 408.1 kg/mmol/h
